System: SARS-CoV-2 (strain WK-521) and various variants thereof
Format: cell-based

## Nc1ncnc2c1c(CO)cn2[C@@H]1O[C@H](CO)[C@@H](O)[C@H]1O [HUP1108, 5-hydroxymethyltubercidin]
  virus amount released from infected cells / antiviral activity against variant strains: has antiviral activity against various variant strains of SARS-CoV-2

Source: patent US20240131046A1, “ANTI-VIRAL AGENT” (NATIONAL UNIVERSITY CORPORATION HOKKAIDO UNIVERSITY, priority 2021, published 2024)
